# Assays:
# Test in all cases: relative viability (nuclei count vs DMSO), 5 days (fraction); higher = more cells survive
# ALW-II-49-7 + Luminespib = compound: Cc1ccc(C(=O)Nc2cccc(C(F)(F)F)c2)cc1Nc1cncc(C(N)=O)c1 [ALW-II-49-7] + CCNC(=O)c1noc(-c2cc(C(C)C)c(O)cc2O)c1-c1ccc(CN2CCOCC2)cc1 [Luminespib] (partner 0.01 µM)
# How it was run: (§1)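 Lung cancer cell lines in 1536-well plates got either a single drug or a fixed anchor-drug dose together with five library-drug doses (not always all listed) in √10 steps, by pin tool, on the day after seeding. Nuclei were counted after 5 days, and relative viability is the treated-to-vehicle ratio of nuclei counts. Values are medians of duplicate plates.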
# Dasatinib + Tozasertib = compound: Cc1nc(Nc2ncc(C(=O)Nc3c(C)cccc3Cl)s2)cc(N2CCN(CCO)CC2)n1 [Dasatinib] + Cc1cc(Nc2cc(N3CCN(C)CC3)nc(Sc3ccc(NC(=O)C4CC4)cc3)n2)n[nH]1 [Tozasertib] (partner 0.1 µM)
# How it was run: as §1
# Dasatinib + Palbociclib = compound: Cc1nc(Nc2ncc(C(=O)Nc3c(C)cccc3Cl)s2)cc(N2CCN(CCO)CC2)n1 [Dasatinib] + CC(=O)c1c(C)c2cnc(Nc3ccc(N4CCNCC4)cn3)nc2n(C2CCCC2)c1=O [Palbociclib] (partner 0.5 µM)
# How it was run: as §1
# ALW-II-49-7 + Decitabine = compound: Cc1ccc(C(=O)Nc2cccc(C(F)(F)F)c2)cc1Nc1cncc(C(N)=O)c1 [ALW-II-49-7] + Nc1ncn([C@H]2C[C@H](O)[C@@H](CO)O2)c(=O)n1 [Decitabine] (partner 2 µM)
# How it was run: as §1
cell line,measurement,setting,value
UMC-11,relative viability,ALW-II-49-7 + Luminespib; first compound 0.08 µM,1.19
same,relative viability,ALW-II-49-7 + Luminespib; first compound 0.253 µM,0.939
same,relative viability,ALW-II-49-7 + Luminespib; first compound 0.8 µM,1.14
same,relative viability,ALW-II-49-7 + Luminespib; first compound 2.53 µM,0.983
same,relative viability,ALW-II-49-7 + Luminespib; first compound 8 µM,1
same,relative viability,Dasatinib + Tozasertib; first compound 0.005 µM,0.196
same,relative viability,Dasatinib + Tozasertib; first compound 0.01581 µM,0.203
same,relative viability,Dasatinib + Tozasertib; first compound 0.05 µM,0.193
same,relative viability,Dasatinib + Tozasertib; first compound 0.1581 µM,0.184
same,relative viability,Dasatinib + Tozasertib; first compound 0.5 µM,0.172
same,relative viability,Dasatinib + Palbociclib; first compound 0.005 µM,0.335
same,relative viability,Dasatinib + Palbociclib; first compound 0.01581 µM,0.278
same,relative viability,Dasatinib + Palbociclib; first compound 0.05 µM,0.27
same,relative viability,Dasatinib + Palbociclib; first compound 0.1581 µM,0.236
same,relative viability,Dasatinib + Palbociclib; first compound 0.5 µM,0.188
same,relative viability,ALW-II-49-7 + Decitabine; first compound 0.08 µM,0.642
same,relative viability,ALW-II-49-7 + Decitabine; first compound 0.253 µM,0.663
same,relative viability,ALW-II-49-7 + Decitabine; first compound 0.8 µM,0.58
same,relative viability,ALW-II-49-7 + Decitabine; first compound 2.53 µM,0.419
same,relative viability,ALW-II-49-7 + Decitabine; first compound 8 µM,0.552
